In patent publication US20220213126A1, “SMALL MOLECULE AUTOPHAGY INDUCERS FOR THE TREATMENT OF CANCER AND NEURODEGENERATIVE DISEASES” (John Wayne Cancer Institute, priority 2019, published 2022):
In brackets after ≈: the same amount, converted by molar mass. Like-named read-outs stand apart in the source and are kept apart here.

Legend:
[1] = tested on: ATM and ULK1; experiment: Cell viability assays with siRNA knock down of binding proteins; format: cell-based; details: preliminary
Experimental: To identify the functional target of VMY-BC-1, preliminary cell viability assays were carried out using siRNA to knock down each of the 10 identified binding proteins. […] Considering that that low ULK1 expression is associated with TNBC disease progression (Tang et al., Breast Cancer Res. Treat. 134:549-560, 2012) and autophagy controls the level of various DNA repair and checkpoint proteins in the DNA damage response pathway (Czarny et al., Int. J. Mol. Sci. 16:2641-2662, 2015; Gomes et al., Int. J. Mol. Sci. 18:2351, 2017), ULK1 activity in response to VMY-BC-1 was investigated. Protein extracts were made from MDA-MB-231 cells treated with vehicle control, VMY-BC-1 (10 μM), and Rapamycin (200 nM) at different time points.

[2] = Brain pharmacokinetics in mice; format: in vivo
Experimental: Pharmacokinetics of VMY-BC-1 in the brain were assessed in mice administered 25 mg/kg VMY-BC-1 p.o. (Table 6).
(§1) Free drug fraction in brain and plasma compartment was determined in vitro (Table 7). Brain to plasma (B/P) ratio was also determined in vivo (Table 8).

[3] = tested on: NHA; experiment: Normal cell viability, Alamar blue, 72 hours; format: cell-based; details: normal cell line
Experimental: (§2) The effect of VMY-BC-1 was tested on a panel of GBM cell lines. […] In this study 100 μM was the highest drug concentration used, with 3-fold dilution for a 10 dose response curve.

[4] = Normal cell viability, Alamar blue, 72 hours; format: cell-based; details: MRCS, normal cell line
Experimental: as §2

[5] = Mouse plasma protein binding (in vitro binding study); format: in vitro ADME, CD1 mouse
Experimental: as §1

[6] = Caco-2 permeability; format: in vitro ADME; details: human, Caco-2
[7] = tested on: Caco-2 cell model; experiment: Caco-2 permeability; format: in vitro ADME
[8] = Pharmacokinetics of BC-4 and BC-5 in mouse plasma and brain; format: in vivo; details: Balb/c mice, single oral dose 5 mg/kg; for Cmax: read-out: Cmax; for Tmax: read-out: Tmax (converted); for half-life: read-out: T½
Experimental: Pharmacokinetics of BC-4 and BC-5 were compared to BC-1. Pharmacokinetics were assessed in Balb/c mice administered a single oral dose of 5 mg/kg of the indicated compound (Tables 11 and 12).

[9] = tested on: MDA-MB-231 TNBC cells; experiment: Growth of MDA-MB-231 TNBC cells; format: cell-based; details: 1%, 5% or 10% serum
Experimental: FIGS. 2A and 2B are graphs showing the effect of VMY-BC-1 on TNBC cells. […] The percentage of cells crossing the chamber is presented as the mean±SEM. *P<0.05.
Effect of VMY-BC-1 on Triple Negative Breast Cancer Cell Lines A trans-stilbene boronic acid analog, VMY-BC-1, was tested against a TNBC cell line.

[10] = Thermodynamic solubility; format: physicochemical; details: pH 7.4, aqueous buffer, thermodynamic from solid
Experimental: Moreover, PK studies of RSV in humans conclude that even high concentration of RSV might be insufficient to achieve in vivo concentrations required for the systemic prevention of cancer. Therefore, in vitro ADME assays were carried out to assess VMY-BC-1 and to identify properties for further optimization.

[11] = tested on: U87 MG tumor xenografts; experiment: U87 GBM tumor xenograft efficacy; format: in vivo, SCID mice
Experimental: To evaluate the anti-tumor efficacy of VMY-BC-1 in vivo, GBM tumor xenografts were established in the flanks of SCID mice. 5×10^6 U87 MG (ATCC HTB-14™) cells in 1×HBSS with 1:1 Matrigel® were implanted subcutaneously in the flank of 5-6 week old female SCID mice (C.B-lgh-1b/GbmsTac-Prkdc^scid-Lyst^bg N7; Taconic Biosciences, India). Mice (n=8) were treated with vehicle (2% (v/v) Tween® 80+98% (v/v) of 0.5% (w/v) hydroxypropyl methylcellulose (HPMC) in water) or VMY-BC-1 75 mg/kg PO daily for 14 days. The dose volume was 10 mL/kg. Tumor volume, tumor growth inhibition (TGI), body weight, and clinical signs were monitored as described in Example 5.

[12] = 25 mg/kg single dose P.O., 0.00 h
[13] = 25 mg/kg single dose P.O., 12.00 h
[14] = 25 mg/kg single dose P.O., 24.00 h
[15] = mouse, brain, read-out: Brain level, Mean (4) ± SE
[16] = mouse, plasma, read-out: Plasma level, Mean (4) ± SE

For `COc1ccc(/C=C/c2cc(OC)cc(B(O)O)c2)cc1` [VMY-BC-1], the “Effect of knock down of ATM and ULK1 on functional activity” value [1] was “abrogated the functional activity”, the Mean Brain Concentration [2, 12] was 0 ng/g and the Mean Plasma Concentration [2, 12] was 0 ng/mL. For the same compound, the “Mean Brain Concentration” value ([2]; 25 mg/kg single dose P.O., 0.50 h, in ng/g) was 40017.53, the “Mean Plasma Concentration” value ([2]; 25 mg/kg single dose P.O., 0.50 h, in ng/mL) was 5273.66 and the “Mean Brain Concentration” value ([2]; 25 mg/kg single dose P.O., 1.00 h, in ng/g) was 28802.80. The “Mean Plasma Concentration” value ([2]; 25 mg/kg single dose P.O., 1.00 h, in ng/mL) was 5486.04, the “Mean Brain Concentration” value ([2]; 25 mg/kg single dose P.O., 3.00 h, in ng/g) was 6158.13 and the “Mean Plasma Concentration” value ([2]; 25 mg/kg single dose P.O., 3.00 h, in ng/mL) was 1945.44. The “Mean Brain Concentration” value ([2]; 25 mg/kg single dose P.O., 6.00 h, in ng/g) was 1948.79, the “Mean Plasma Concentration” value ([2]; 25 mg/kg single dose P.O., 6.00 h, in ng/mL) was 889.87 and the Mean Brain Concentration [2, 13] was 0 ng/g. For the same compound, the Mean Plasma Concentration [2, 13] was 0 ng/mL, the Mean Brain Concentration [2, 14] was 0 ng/g and the Mean Plasma Concentration [2, 14] was 0 ng/mL. It also gave an AUCextrap ([2]; Brain, oral 25 mg/kg) of 4.74%, an AUCinf ([2]; Brain, oral 25 mg/kg) of 78032.82 ng·h/g and an AUClast ([2]; Brain, oral 25 mg/kg) of 74330.76 ng·h/g. It also gave an AUCextrap ([2]; Plasma, oral 25 mg/kg) of 13.75%, a Kp at 0 h ([2]; mouse, brain and plasma, oral, 25 mg/kg single dose P.O., 0.00 h, read-out: Brain to Plasma Ratio) of 0 and a Kp at 12 h ([2]; mouse, brain and plasma, oral, 25 mg/kg single dose P.O., 12.00 h, read-out: Brain to Plasma Ratio) of 0. For the same compound, the Kp at 24 h ([2]; mouse, brain and plasma, oral, 25 mg/kg single dose P.O., 24.00 h, read-out: Brain to Plasma Ratio) was 0, the Kp ([2]; mouse, brain and plasma, po, 25 mg/kg p.o., read-out: Cmax relative to plasma) was 7 and the Kp at 0.5 h ([2]; mouse, brain and plasma, po, 25 mg/kg single dose P.O., 0.50 h, read-out: Brain to Plasma Ratio) was 7.59. The Kp at 1 h ([2]; mouse, brain and plasma, po, 25 mg/kg single dose P.O., 1.00 h, read-out: Brain to Plasma Ratio) was 5.25, the Kp at 3 h ([2]; mouse, brain and plasma, po, 25 mg/kg single dose P.O., 3.00 h, read-out: Brain to Plasma Ratio) was 3.17 and the Kp at 6 h ([2]; mouse, brain and plasma, po, 25 mg/kg single dose P.O., 6.00 h, read-out: Brain to Plasma Ratio) was 2.19. For the same compound, the Cmax ([2]; mouse, Brain, oral 25 mg/kg) was 40000 ng/g, the MRT last ([2]; mouse, Brain, oral 25 mg/kg) was 1.48 h and the Tmax ([2]; mouse, Brain, oral 25 mg/kg) was 30 min. For the same compound, the half-life ([2]; mouse, Brain, oral 25 mg/kg) was 79.2 min, the AUC(0-inf) ([2]; mouse, Plasma, oral 25 mg/kg) was 18200 ng·h/mL and the AUC(0-t) ([2]; mouse, Plasma, oral 25 mg/kg) was 15700 ng·h/mL. It also gave a Cmax ([2]; mouse, Plasma, oral 25 mg/kg) of 5490 ng/mL, an MRT last ([2]; mouse, Plasma, oral 25 mg/kg) of 1.96 h and a Tmax ([2]; mouse, Plasma, oral 25 mg/kg) of 60 min. The half-life ([2]; mouse, Plasma, oral 25 mg/kg) was 117 min, the IC50 [3] was 26.5 µM and the IC50 [4] was 35.3 µM. For the same compound, the recovery ([5]; CD1, mouse, mouse plasma) was 89.3%, the fraction unbound ([5]; CD1, mouse, plasma, Table 3) was 0.265 and the “Plasma protein binding” value ([5]; CD1 mouse plasma) was “moderate plasma protein binding”. For the same compound, the “Bound (%)” value ([5]; Mouse Plasma) was 73.48%, the “fu (%)” value ([5]; Mouse Plasma) was 26.52% and the efflux ratio [6] was 0.4. The Papp A→B ([6]; A-B) was 51 ×10⁻⁶ cm/s, the Papp B→A ([6]; B-A) was 20 ×10⁻⁶ cm/s and the “Permeability in Caco-2 cell model” value [7] was “high permeability”. The “Brain level, Mean (4) ± SE” value ([8]; 0 min) was “BQL”, the “Plasma level, Mean (4) ± SE” value ([8]; 0 min) was “BQL” and the “Brain level, Mean (4) ± SE” value ([8]; 360 min) was “BQL”. For the same compound, the “Plasma level, Mean (4) ± SE” value ([8]; 360 min) was “BQL”, the “Brain level, Mean (4) ± SE” value ([8]; 900 min) was “BQL” and the “Plasma level, Mean (4) ± SE” value ([8]; 900 min) was “BQL”. For the same compound, the “Brain level, Mean (4) ± SE” value ([8]; 1440 min) was “BQL”, the “Plasma level, Mean (4) ± SE” value ([8]; 1440 min) was “BQL” and the “terminal elimination rate constant (lambda z)” value ([8]; Brain) was 0.0156 min⁻¹. The “terminal elimination rate constant (lambda z)” value ([8]; Plasma) was 0.0157 min⁻¹, the concentration at 30 min [8, 15] was 1560 ± 237 ng/g and the concentration at 60 min [8, 15] was 1400 ± 211 ng/g. It also gave a concentration at 180 min [8, 15] of 169 ± 58 ng/g, a concentration at 30 min [8, 16] of 578 ± 55 ng/mL and a concentration at 60 min [8, 16] of 470 ± 61 ng/mL. For the same compound, the concentration at 180 min [8, 16] was 60 ± 48 ng/mL, the Cmax ([8]; mouse, Brain) was 1560 ng/g and the Tmax ([8]; mouse, Brain) was 30 min. For the same compound, the half-life ([8]; mouse, Brain) was 44.3 min, the AUC(0-inf) ([8]; mouse, Plasma) was 865 ng·h/mL and the AUC(0-t) ([8]; mouse, Plasma, read-out: AUC(0-t) (converted)) was 803 ng·h/mL. It also gave a Cmax ([8]; mouse, Plasma) of 578 ng/mL, a Tmax ([8]; mouse, Plasma) of 30 min and a half-life ([8]; mouse, Plasma) of 44 min. For the same compound, the “Growth of MDA-MB-231 TNBC cells” value [9] was “significantly inhibited growth”, the solubility thermodynamic [10] was 0.31 µM (≈ 0.0881 µg/mL) and the “Treatment-related adverse effects (body weight and clinical signs)” value ([11]; 75 mg/kg once daily oral, 14 days) was “No treatment-related adverse effects were observed”. For the same compound, the Tumor growth inhibition ([11]; 75 mg/kg once daily oral, end of 2 weeks) was 32%, the “Drug levels in tumor vs plasma” value ([11]; U87 xenograft mice, 75 mg/kg) was “higher VMY-BC-1 drug levels in tumor than in plasma” and the “Apoptosis by TUNEL staining” value ([11]; tumor tissue, 75 mg/kg) was “significant increase in apoptosis”. The “Reduction in Ki67 proliferation marker vs control” value ([11]; tumor tissue, 75 mg/kg) was 51%.
